Reference: US20250019398A1, “NONAMERIC PEPTIDE HAVING EXCELLENT ANTIBACTERIAL ACTIVITY AGAINST GRAM-NEGATIVE BACTERIA AND ENANTIOMER THEREOF” (priority 2021, published 2025)
Values after ≈ are worked out from the molar mass of the structure shown. “Also recorded” adds a separate entry of the source. Where two headings read alike, the source gives them in different places. Square brackets hold non-standard residues; d marks the D form. Ends that are not written are not given here. Peptide text beside a SMILES is read from it.

What was measured:
[1] = tested on: CRAB 12005 (carbapenem-resistant A. baumanii CCARM); assay: MIC, broth dilution; assay type: cell-based, A. baumannii; settings: 16 hours, read-out: Minimal inhibitory concentration (MIC), CRAB 12005
Excerpt: (§1) Among the bacterial strains used in the experiment, Escherichia coli KCTC 1682 was obtained from the Korean Collection for Type Cultures (KCTC) (Jeongeup, Korea), Acinetobacter baumannii KCCM 40203 and Pseudomonas aeruginosa KCCM 11328 were obtained from the Korean Culture Center of Microorganisms (KCCM) (Seoul, Korea), and Klebsiella pneumonia NCCP 16054 was obtained from the National Culture Collection for Pathogens (NCCP) (Osong, Korea). In addition, carbapenem-resistant E. coli NCCP16044 and carbapenem-resistant Klebsiella pneumonia NCCP 15782 were obtained from the NCCP, and three types of carbapenem-resistant A. baumanii CCARM 12004-6 were obtained from the Culture Collection of Antimicrobial Resistance Microbes (CCARM) (Cheongju City, Korea). The E. coli K1 (ATCC700973) strain used in the animal experiments was obtained from the American Type Culture Collection (ATCC) ([…]).
(§2) The antimicrobial activities of the peptides were measured by a minimal inhibitory concentration (MIC) analysis. The MIC was determined using a broth dilution method. All bacterial strains were grown overnight at 37° C. in a Muller-Hinton (MH) medium.

[2] = tested on: CRAB 12004 (carbapenem-resistant A. baumanii CCARM); assay: MIC, broth dilution; assay type: cell-based, A. baumannii; settings: 16 hours, read-out: Minimal inhibitory concentration (MIC), CRAB 12004
Excerpt: as §1, §2

[3] = tested on: CRAB 12006 (carbapenem-resistant A. baumanii CCARM); assay: MIC, broth dilution; assay type: cell-based, A. baumannii; settings: 16 hours, read-out: Minimal inhibitory concentration (MIC), CRAB 12006
Excerpt: as §1, §2

[4] = tested on: carbapenem-resistant E. coli NCCP16044 (CREC 16044); assay: microbe, parasite or virus in culture; assay type: cell-based; settings: 16 hours, read-out: Minimal inhibitory concentration (MIC), CREC 16044
Excerpt: as §1, §2

[5] = tested on: sheep red blood cells (sRBCs); assay: Hemolysis of sheep red blood cells; assay type: cell-based; settings: for Hemolysis of sRBCs: 100 μM, 1 h
Method: Peptide-induced toxicity was determined by hemolysis of sheep red blood cells (sRBCs). Fresh sRBCs were washed three times or more with phosphate buffered saline (PBS), and debris was removed by centrifugation (1000×g, 5 minutes, 4° C.). All the peptides including a melittin control (0.2 to 100 μM) and a positive control (1% (v/v) Triton X-100) were cultured with 4% (v/v) sRBCs at 37° C. for 1 h, and then centrifuged at 1000×g for 5 minutes. The supernatant was measured at 405 nm using a microplate reader.

[6] = tested on: carbapenem-resistant Klebsiella pneumonia NCCP 15782 (CRKP 15782); assay: MIC, broth dilution; assay type: cell-based; settings: 16 hours
Excerpt: as §1, §2

[7] = tested on: Klebsiella pneumonia NCCP 16054; assay: MIC, broth dilution; assay type: cell-based; settings: standard Gram-negative bacteria, 16 hours
Excerpt: as §1, §2

[8] = In vivo toxicity (serum AST, ALT, BUN); design: species or system ICR mice; settings: 1 mg/kg and 5 mg/kg i.p., 24 hours
Method: For in vivo toxicity measurements, ICR mice (n=5 per group) were injected intraperitoneally (i.p.) with R-Pro9-3D (1 mg and 5 mg/kg/day in PBS), and serum levels of aspartate aminotransferase (AST) and alanine aminotransferase (ALT) in the liver and BUN (blood urea nitrogen) in the kidney were measured using a standard kit manufactured by ASAN PHARM. Co., LTD.

[9] = tested on: RAW 264.7 mouse macrophages; assay: WST-8 cytotoxicity; assay type: cell-based; settings: 100 μM, 24 hours
Method: (§3) Additionally, for a cell-based toxicity assay, RAW 264.7 mouse macrophages and human kidney (HK)-2 cells were obtained from the Korean Cell Line Bank (Seoul, Korea), and cells were maintained in a DMEM culture medium (Thermo Fischer Scientific Inc., MA, USA) supplemented with 10% fetal bovine serum and 1% penicillin/streptomycin at 37° C. in a humidified 5% CO2 incubator. The cytotoxicity of the peptides was analyzed using a WST-8 cell proliferation assay (Biomax Co, Ltd, Seoul, South Korea), and the experiment was performed according to the kit protocol. Cells (1×10^4) were seeded in a 96-well plate, the peptide treatment (0 to 100 μM) were initiated at 80% confluency and then the cells were cultured for 24 hours. After culturing, a WST-8 reagent was added and the change in absorbance was read at 450 nm relative to the reagent blank, and values were expressed as percent cell survival.

[10] = tested on: human kidney (HK)-2 cells; assay: WST-8 cytotoxicity; assay type: cell-based; settings: 100 μM, 24 hours
Method: as §3

[11] = tested on: Escherichia coli KCTC 1682; assay: MIC, broth dilution; assay type: cell-based; settings: standard Gram-negative bacteria, 16 hours; read-out: Minimal inhibitory concentration (MIC), E. coli
Excerpt: In addition, carbapenem-resistant E. coli NCCP16044 and carbapenem-resistant Klebsiella pneumonia NCCP 15782 were obtained from the NCCP, and three types of carbapenem-resistant A. baumanii CCARM 12004-6 were obtained from the Culture Collection of Antimicrobial Resistance Microbes (CCARM) (Cheongju City, Korea). The E. coli K1 (ATCC700973) strain used in the animal experiments was obtained from the American Type Culture Collection (ATCC) ([…]).
as §2

[12] = tested on: Pseudomonas aeruginosa KCCM 11328; assay: MIC, broth dilution; assay type: cell-based; settings: standard Gram-negative bacteria, 16 hours
Excerpt: as §1, §2

[13] = tested on: Acinetobacter baumannii KCCM 40203; assay: MIC, broth dilution; assay type: cell-based; settings: standard Gram-negative bacteria, 16 hours
Excerpt: as §1, §2

[14] = tested on: A. baumannii; assay type: cell-based; settings: 37° C.; for MIC, A. baumannii + Trypsin: peptide pre-cultured with trypsin 6 hours; for MIC, A. baumannii + α-Chymotrypsin: peptide pre-cultured with α-chymotrypsin 6 hours
Method: (§4) Proteolysis of peptides in serum has limited clinical use due to decreased bioavailability and half-life. Therefore, the stability of all the peptides pre-exposed to trypsin and chymotrypsin proteases was investigated and the relative growth inhibition of E. coli and A. baumannii was determined (Table 3). […] Thereafter, 100 μL of a peptide-protease mixture was added to 100 μL of a bacterial suspension (E. coli, A. baumannii, 2×10^5 CFU/mL), and the resulting mixture was further cultured at 37°° C. for 16 hours. A bacterial suspension without a peptide and protease was employed as a negative control. An analysis was performed in triplicates through independent experiments, and the degree of bacterial growth was measured at 600 nm using a microplate reader.

[15] = tested on: E. coli; assay type: cell-based; settings: 37° C.; for MIC, E. coli + Trypsin: peptide pre-cultured with trypsin 6 hours; for MIC, E. coli + α-Chymotrypsin: peptide pre-cultured with α-chymotrypsin 6 hours
Method: as §4

[16] = tested on: LPS; assay: LAL chromogenic endotoxin assay (LPS neutralization); assay type: biochemical; settings: LPS 2 ng/mL; peptide concentration of the values not stated (3.1-50 μM tested)
Method: Peptide-mediated LPS-neutralizing activity was determined using a Limulus amebocyte lysate (LAL) chromogenic endotoxin quantification kit (GenScript, New Jersey, USA). 3.1, 6.3, 10, 12.5, 25, and 50 μM of each peptide were allowed to react so as to interact with LPS (2 ng/mL) at 37° C. for 10 minutes. LL-37, which is known to have high LPS-neutralizing ability, was used as a control. After an LAL enzyme (10 μL) was added to the peptide-LPS complex and the resulting mixture was allowed to react for 10 minutes, a chromogenic substrate was added thereto. An endotoxin level was shown by measuring the absorbance at 545 nm in triplicate and expressed in endotoxin units (EUs) per milliliter.

[17] = tested on: LPS (E. coli O111:B4); assay: BODIPY-TR cadaverine displacement assay (LPS binding); settings: 4 μM, 30 minutes
Method: The binding ability of peptides to LPS was investigated by BODIPY-TR cadaverine (BC, Thermo Fisher Scientific, MA, USA) displacement assay (FIG. 2A). A probe complex was prepared by mixing 5 μg/mL BC and 5 μg/mL LPS (E. coli O111:B4, Sigma-Aldrich, St. Louis, MO, USA) in a 50 mM Tris buffer (pH 7.4) at room temperature for 6 hours. Peptides containing a polymyxin B (PMB) control (1 to 64 μM), which is known to have high LPS binding ability, were allowed to interact with the LPS-BC mixture in a black 96-well plate for 30 minutes. Relative fluorescence intensities were recorded using a fluorescence microplate reader (Molecular Devices, San Jose, USA) at an excitation wavelength of 580 nm and an emission wavelength of 620 nm.

[18] = sheep red blood cells, 200 μM used when no detectable hemolysis at 100 μM

Compound: C[C@@H](O)[C@H]1C(=O)N2C(C(=O)O)=C(SCCN=CN)C[C@H]12 [Imipenem]
- MIC ([1]; Acinetobacter baumannii): 64 µM (≈ 19.2 µg/mL)
- MIC ([2]; Acinetobacter baumannii): 64 µM (≈ 19.2 µg/mL)
- MIC ([3]; Acinetobacter baumannii): 64 µM (≈ 19.2 µg/mL)
- MIC ([4]; Escherichia coli): 8 µM (≈ 2.39 µg/mL)

Compound: CC[C@@H](C)[C@@H](NC(=O)[C@@H](C)NC(=O)[C@@H](CC(C)C)NC(=O)[C@@H](Cc1c[nH]c2ccccc12)NC(=O)[C@@H](CC(C)C)NC(=O)[C@H](N)CCCNC(=N)N)C(=O)N[C@H](Cc1c[nH]c2ccccc12)C(=O)N[C@H](CCCNC(=N)N)C(=O)N[C@H](CCCNC(=N)N)C(N)=O [Pro9-3D, rlwlaiwrr-NH2] (H-[dR][dL][dW][dL][dA][dI][dW][dR][dR]-NH2)
- MIC [1]: 8 µM (≈ 10.1 µg/mL)
- MIC [2]: 8 µM (≈ 10.1 µg/mL)
- MIC [3]: 8 µM (≈ 10.1 µg/mL)
- HC10 (peptide concentration that induces 10% hemolysis) ([5]; red cells of sheep): 200 µM
- MIC [4]: 8 µM (≈ 10.1 µg/mL)
- Minimal inhibitory concentration (MIC), CRKP 15782 [6]: 8 µM (≈ 10.1 µg/mL)
- Minimal inhibitory concentration (MIC), K. pneumonia [7]: 8 µM (≈ 10.1 µg/mL)

Compound: CC[C@@H](C)[C@@H](NC(=O)[C@@H](Cc1c[nH]c2ccccc12)NC(=O)[C@@H](CCCNC(=N)N)NC(=O)[C@H](N)CCCNC(=N)N)C(=O)N[C@H](C)C(=O)N[C@H](CC(C)C)C(=O)N[C@H](Cc1c[nH]c2ccccc12)C(=O)N[C@H](CC(C)C)C(=O)N[C@H](CCCNC(=N)N)C(N)=O [R-Pro9-3D, rrwialwlr-NH2] (H-[dR][dR][dW][dI][dA][dL][dW][dL][dR]-NH2)
- Serum AST, ALT and BUN levels (in vivo toxicity) [8]: no clinically significant levels; also recorded: did not increase the above enzyme levels
- MIC [1]: 4 µM (≈ 5.07 µg/mL)
- MIC [2]: 4 µM (≈ 5.07 µg/mL)
- MIC [3]: 4 µM (≈ 5.07 µg/mL)
- Toxicity in RAW264.7 cells [9]: 20.3%
- Toxicity in human kidney (HK)-2 cells [10]: 9.6%
- Hemolysis of sRBCs [5]: 1.2%
- HC10 (peptide concentration that induces 10% hemolysis) [5, 18]: 200 µM
- MIC [11]: 8 µM (≈ 10.1 µg/mL)
- MIC [4]: 4 µM (≈ 5.07 µg/mL)
- Minimal inhibitory concentration (MIC), P. aeruginosa [12]: 8 µM (≈ 10.1 µg/mL)
- Minimal inhibitory concentration (MIC), CRKP 15782 [6]: 8 µM (≈ 10.1 µg/mL)
- Minimal inhibitory concentration (MIC), A. baumannii [13]: 4 µM (≈ 5.07 µg/mL)
- Minimal inhibitory concentration (MIC), K. pneumonia [7]: 8 µM (≈ 10.1 µg/mL)
- MIC, A. baumannii + Trypsin [14]: 4 µM
- MIC, A. baumannii + α-Chymotrypsin [14]: 4 µM
- MIC, E. coli + Trypsin [15]: 8 µM
- MIC, E. coli + α-Chymotrypsin [15]: 8 µM

Compound: LL-37
- LPS neutralization [16]: 76.5%

Compound: RLWLAIWRR-NH2 [Pro9-3]
- MIC [1]: 16 µM
- MIC [2]: 16 µM
- MIC [3]: 16 µM
- Toxicity in RAW264.7 cells [9]: neither R-Pro9-3 nor Pro9-3 showed toxicity; also recorded: non-toxic
- Toxicity in human kidney (HK)-2 cells [10]: neither R-Pro9-3 nor Pro9-3 showed toxicity; also recorded: non-toxic
- HC10 (peptide concentration that induces 10% hemolysis) ([5]; red cells of sheep): 200 µM
- MIC [4]: 16 µM
- Minimal inhibitory concentration (MIC), CRKP 15782 [6]: 64 µM
- Minimal inhibitory concentration (MIC), K. pneumonia [7]: 64 µM

Compound: RRWIALWLR-NH2 [R-Pro9-3]
- MIC [1]: 16 µM
- MIC [2]: 32 µM
- MIC [3]: 16 µM
- Toxicity in RAW264.7 cells [9]: neither R-Pro9-3 nor Pro9-3 showed toxicity; also recorded: non-toxic
- Toxicity in human kidney (HK)-2 cells [10]: neither R-Pro9-3 nor Pro9-3 showed toxicity; also recorded: non-toxic
- Hemolysis of sRBCs [5]: 3.4%
- HC10 (peptide concentration that induces 10% hemolysis) [5, 18]: 200 µM
- MIC [11]: 16 µM
- MIC [4]: 16 µM
- Minimal inhibitory concentration (MIC), P. aeruginosa [12]: 64 µM
- Minimal inhibitory concentration (MIC), CRKP 15782 [6]: 16 µM
- Minimal inhibitory concentration (MIC), A. baumannii [13]: 16 µM
- Minimal inhibitory concentration (MIC), K. pneumonia [7]: 32 µM
- MIC, A. baumannii + Trypsin [14]: >64 µM
- MIC, A. baumannii + α-Chymotrypsin [14]: >64 µM
- MIC, E. coli + Trypsin [15]: >64 µM
- MIC, E. coli + α-Chymotrypsin [15]: 64 µM

Compound: polymyxin B [PMB]
- BC displacement (LPS binding) [17]: 76.6%
